Source: US20040142853A1, “Stimulation of hair growth by compositions containing peptide copper complexes and minoxidil” (priority 2002, published 2004)

System: cultured hair follicles
Assay: Radioactive cysteine incorporation in cultured hair follicles as a measure of hair growth
Assay type: cell-based, mice
Method: In this system, follicles were dissected from 4 day old mice. Healthy follicles were selected visually and cultured in serum free media supplemented with insulin, transferrin and selenium. The activity of compositions comprising one or more of the test compounds in stimulating hair growth was measured by radioactive cysteine labeling of the newly formed hair proteins and expressed as a percentage of the activity of a control (i.e., no test compounds present).

Q: Which results are given for “Glycyl-L-Histidyl-L-Lysyl-L-Valyl-L-Phenylalanyl-L-Valine: Copper Complex”?
A: radioactive cysteine incorporation relative to control (result in words) (at the concentrations used (Minoxidil 1 mM, peptide copper complex 10 μM)): stimulated radioactive cysteine incorporation above that of the control; % of Cysteine Incorporation of Control (no addition) (peptide copper complex 10 μM, follicles from 4 day old mice, serum free media): 113%
